The values that follow come from patent publication US6576593B2, “Synergistic herbicidal compositions comprising herbicides from the benzoylcyclohexanedione group for use in maize corps” (Aventis CropScience GmbH, priority 2001, dated 2003).

For assay [1], the system named is Ipomea laputifolia (IPOMEA). Put plainly: Herbicidal activity of A5, herbicides (B) and their combinations, visual scoring, against IPOMEA. Format: in vivo. How it is done: (§1) The herbicidal efficacy of the active ingredients or active ingredient mixtures was scored visually by comparing the treated plots with untreated control plots. The damage and development of all aerial plant parts was recorded. […] The score figures of in each case 4 plots were averaged. Maize plants were grown in the open on plots of from 5 to 10 m^2 in size on different soils and under various climatic conditions, the natural presence of harmful plants or seeds thereof in the soil being exploited for the experiments. […] The active ingredient or active ingredient combinations were applied post-emergence as WG, WP or EC formulations. After 2 to 8 weeks, the plants were scored visually in comparison with an untreated comparison group. […] Moreover, the herbicidal activities of the compositions according to the invention exceed the expected values calculated using Colby's formula. In contrast, the maize plants were left unharmed or virtually unharmed as a consequence of the treatment. When applying the combinations according to the invention, herbicidal effects are frequently observed on a harmful plant species which exceed the formal total of the effects of the herbicides present when these are applied by themselves. Alternatively, it is observed in some cases that a lower application rate is required for the herbicide combination in order to achieve the same effect on a harmful plant species in comparison with the individual products. […] The biological examples listed in the tables hereinbelow relate to the herbicidal activity of combinations according to the invention of the following herbicides against the harmful plants Ipomea laputifolia (IPOMEA) and Avena fatua (AVENA): […]

Another assay deals with Avena fatua (AVENA). In words: Herbicidal activity of A5, herbicides (B) and their combinations, visual scoring, against AVEFA. It is filed as in vivo. On the procedure: as §1

Consider `CC(C)N(C(=O)COc1nnc(C(F)(F)F)s1)c1ccc(F)cc1` [Compound B1.4, flufenacet], for which the pest or weed control at 373 g/ha in assay [1] (Dosage 373 g ai/ha, read-out: Activity against IPOMEA found) amounted to 25%; in the assay with Avena fatua (AVENA) (Avena fatua, Dosage 373 g ai/ha, read-out: Activity against AVEFA found), 50%.

In the case of `CCc1cccc(C)c1N(C(=O)CCl)C(C)COC` (stereo not drawn) [Compound B1.5, metolachlor], the pest or weed control at 960 g/ha in assay [1] (Dosage 960 g ai/ha, read-out: Activity against IPOMEA found) came out at 13%; with Avena fatua (AVENA) (Avena fatua, Dosage 960 g ai/ha, read-out: Activity against AVEFA found) it was 20%.

As to `CCNc1nc(Cl)nc(NC(C)C)n1` [Compound B2.1, atrazine], the pest or weed control at 540 g/ha in assay [1] (Dosage 540 g ai/ha, read-out: Activity against IPOMEA found) turned out to be 25%; with Avena fatua (AVENA) (Avena fatua, Dosage 540 g ai/ha, read-out: Activity against AVEFA found), 50%.

Regarding `N#Cc1cc(Br)c(O)c(Br)c1` [Compound B2.2, bromoxynil], the pest or weed control at 140 g/ha in assay [1] (Dosage 140 g ai/ha, read-out: Activity against IPOMEA found) was 25%; in the assay with Avena fatua (AVENA) (Avena fatua, Dosage 140 g ai/ha, read-out: Activity against AVEFA found), 20%.

Turning to `COc1c(Cl)ccc(Cl)c1C(=O)O` [Compound B4.1, dicamba], the pest or weed control at 80 g/ha in assay [1] (Dosage 80 g ai/ha, read-out: Activity against IPOMEA found) is 25%; in the assay with Avena fatua (AVENA) (Avena fatua, Dosage 80 g ai/ha, read-out: Activity against AVEFA found), 10%.

Turning to `CCc1cnc(C2=NC(C)(C(C)C)C(=O)N2)c(C(=O)O)c1` (stereo not drawn) [Compound B5.6, imazethapyr], the pest or weed control at 30 g/ha in assay [1] (Dosage 30 g ai/ha, read-out: Activity against IPOMEA found) worked out at 25%; in the assay on Avena fatua (AVENA) (Avena fatua, Dosage 30 g ai/ha, read-out: Activity against AVEFA found), 10%.

For `COC(=O)c1ccc(I)cc1S(=O)(=O)[N-]C(=O)Nc1nc(C)nc(OC)n1.[Na+]` [Compound B5.7, iodosulfuron-methyl-sodium], in assay [1] (Dosage 1 g ai/ha), the “Activity against IPOMEA found” value is recorded as 20%. Moreover, the “Activity against AVEFA found” value in the assay with Avena fatua (AVENA) (Dosage 1 g ai/ha) was found to be 30%.

As for `COc1cc(OC)nc(NC(=O)NS(=O)(=O)c2ncccc2C(=O)N(C)C)n1` [Compound B5.9, nicosulfuron], the pest or weed control at 15 g/ha in assay [1] (Dosage 15 g ai/ha, read-out: Activity against IPOMEA found) is 20%; with Avena fatua (AVENA) (Avena fatua, Dosage 15 g ai/ha, read-out: Activity against AVEFA found), 40%.

On to `CCC(CC)Nc1c([N+](=O)[O-])cc(C)c(C)c1[N+](=O)[O-]` [Compound B7.1, pendimethalin], for which the pest or weed control at 840 g/ha was determined as 40% in assay [1] (Dosage 840 g ai/ha, read-out: Activity against IPOMEA found) and 10% in the assay with Avena fatua (AVENA) (Avena fatua, Dosage 840 g ai/ha, read-out: Activity against AVEFA found).
